Assay results as given in patent US4924002A, “Novel process for the preparation of pyrazoles from isoxazoles” (Warner-Lambert Company, priority 1989, dated 1990).

What was measured:
cyclooxygenase = target: T1, cyclooxygenase (Rattus norvegicus, UniProt Q63921); assay: ARBC RBL-1 whole cell cyclooxygenase assay (PGF2α by RIA); type: cell-based; details: RBL-1 intact cells, 5 μM A23187, PGF2α
T1 construct: host or cells: RBL-1 (rat basophilic leukemia)
T1 sequence (Q63921 27-602): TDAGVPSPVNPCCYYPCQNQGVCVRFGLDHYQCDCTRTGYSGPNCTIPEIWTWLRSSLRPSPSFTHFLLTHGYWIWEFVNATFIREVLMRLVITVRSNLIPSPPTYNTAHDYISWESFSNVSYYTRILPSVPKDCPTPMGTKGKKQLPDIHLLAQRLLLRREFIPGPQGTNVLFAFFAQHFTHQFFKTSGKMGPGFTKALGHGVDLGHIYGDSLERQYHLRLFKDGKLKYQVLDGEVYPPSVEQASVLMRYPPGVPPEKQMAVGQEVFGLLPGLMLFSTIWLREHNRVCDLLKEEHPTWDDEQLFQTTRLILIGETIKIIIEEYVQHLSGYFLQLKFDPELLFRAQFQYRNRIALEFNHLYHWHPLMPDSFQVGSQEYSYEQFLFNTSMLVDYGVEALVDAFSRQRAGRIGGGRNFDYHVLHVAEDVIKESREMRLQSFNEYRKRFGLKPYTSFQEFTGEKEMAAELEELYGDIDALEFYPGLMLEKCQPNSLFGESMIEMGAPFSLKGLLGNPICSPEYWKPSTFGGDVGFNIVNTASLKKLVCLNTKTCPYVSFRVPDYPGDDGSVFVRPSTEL
Method: (§1) ARBL/ARBC Whole Cell 5-Lipoxygenase and Cyclooxygenase Assays
(§2) The rat basophilic leukemia cell line (RBL-1) was obtained from the American Type Culture Collection (Rockville, Md.).
(§3) Radioimmuno assay (RIA) kits of LTB4 and PGF2α were obtained from Amersham (Arlington Heights, Ill.) and Seragen (Boston, Mass.) respectively.
(§4) All tissue culture media were obtained from GIBCO (Grand Island, N.Y.).
(§5) RBL-1 cells were grown in culture (suspension) in Eagle's minimum essential medium supplemented with 12% fetal bovine serum and 1:100 antibiotic-antimycotic mixture at 37° C. in an incubator supplied with air-5% carbon dioxide. Cells were harvested by centrifugation. They were washed with cold phosphate buffered saline pH 7.4 (PBS; NaCl, 7.1 g; Na2 HPO4, 1.15 g; KH2 PO4, 0.2 g; and KCl, 0.2 g/L). […] Calcium ionophore A23187 (5 μM) was added and cells were incubated for seven minutes at 37° C. The reaction was stopped by chilling the tubes in ice for ten minutes. Cells were separated by centrifugation and the supernatant was stored at -20°. Aliquots (100 μl) were analyzed for LTB4 and PGF2α using radioimmuno assay kits as provided by the supplier.

5-lipoxygenase = target: T2, 5-lipoxygenase (Rattus norvegicus, UniProt P12527); assay: ARBL RBL-1 whole cell 5-lipoxygenase assay (LTB4 by RIA); type: cell-based; details: RBL-1 intact cells, 5 μM A23187, LTB4
T2 construct: host or cells: RBL-1 (rat basophilic leukemia)
T2 sequence (P12527 1-673): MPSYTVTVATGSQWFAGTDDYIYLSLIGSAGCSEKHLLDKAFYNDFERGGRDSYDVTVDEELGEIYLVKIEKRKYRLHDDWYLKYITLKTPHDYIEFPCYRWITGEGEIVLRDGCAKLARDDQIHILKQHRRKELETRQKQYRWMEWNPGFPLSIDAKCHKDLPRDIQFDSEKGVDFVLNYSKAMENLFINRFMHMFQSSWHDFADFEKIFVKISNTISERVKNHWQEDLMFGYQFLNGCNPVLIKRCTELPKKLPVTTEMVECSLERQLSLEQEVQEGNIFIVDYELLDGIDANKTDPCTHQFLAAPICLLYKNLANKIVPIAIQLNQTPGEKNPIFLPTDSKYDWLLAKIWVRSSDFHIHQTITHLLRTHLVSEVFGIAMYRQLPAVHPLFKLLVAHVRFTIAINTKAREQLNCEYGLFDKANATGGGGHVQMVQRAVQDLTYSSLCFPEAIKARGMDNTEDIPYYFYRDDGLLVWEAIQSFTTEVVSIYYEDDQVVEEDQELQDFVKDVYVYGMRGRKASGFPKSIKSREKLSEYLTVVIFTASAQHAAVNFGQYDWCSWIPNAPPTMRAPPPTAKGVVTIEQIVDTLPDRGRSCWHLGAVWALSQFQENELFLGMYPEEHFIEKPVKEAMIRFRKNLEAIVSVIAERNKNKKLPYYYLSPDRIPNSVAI
Method: as §1, §2, §3, §4, §5

[1] = Ultraviolet absorbing properties compared with p-aminobenzoic acid; type: physicochemical; design: UV max: unit not given here; details: for α: ultraviolet absorption
Method: The ultraviolet absorbing properties of the compounds of the present invention is generally shown by a comparison with p-aminobenzoic acid which is the active ingredient in most commercial sunscreens. Such properties are within the ultraviolet absorbing ranges of […] range critical to effectiveness. A representative compound of the invention is compared to p-aminobenzoic acid in the following Table.

Cc1cc(C=Cc2cc(Br)c(O)c(Br)c2)no1 [Example 54B]
IC50 (cyclooxygenase): 4.2 µM
IC50 (5-lipoxygenase): 3.3 µM

Cc1cc(C=Cc2cc(Br)c(O)c(Br)c2)n[nH]1 [Example 58, 3-[β-(4'-Hydroxy-3',5'-dibromophenyl)ethenyl]-5-methylpyrazole]
IC50 (cyclooxygenase): 14.5 µM
IC50 (5-lipoxygenase): 5.7 µM

Nc1ccc(C(=O)O)cc1 [p-aminobenzoic acid, reference compound]
α [1]: 132.2

COc1cc(C=Cc2cc(C)[nH]n2)ccc1O [Example 5, 3-[β-(4'-Hydroxy-3'-methoxyphenyl)ethenyl]-5-methyl-pyrazole]
UV max [1]: 292
α [1]: 111.1

COC(=O)C(=Cc1cc(C(C)(C)C)c(O)c(C(C)(C)C)c1)c1cc(C)no1 [Example 46, 5-[α-Carbomethoxy-β-(4'-hydroxy-3',5'-bis(1,1-dimethylethyl)phenyl)ethenyl]-3-methylisoxazole]
IC50 (cyclooxygenase): 2 µM
IC50 (5-lipoxygenase): 10 µM
